Measured values from ChEMBL document CHEMBL3507680, “University of Dundee, Gates Library screen for HepG2 cell viability”.

Test: Human HepG2 cell viability assay in 384 well format
Type: toxicity, cell-based
Set-up: dose 125 nL, time 70.5 hour; cytotoxicity at 70.5 h: concentration not given beside the values
Conditions: HepG2 cells, read-out: Inhibition

| Structure (SMILES) | cytotoxicity at 70.5 h [%] |
| --- | --- |
| CCC1(CC)Cc2ccccc2-c2nc(CN(C)C)nc(O)c21 | 27.5 |
| COCCN1CCC2(CC1)COc1ccccc1S(=O)(=O)N(C)C2 | 2.33 |
| Cc1noc(C2CCC3(CCN(C(=O)c4ccn(C)n4)CC3)O2)n1 (centres undefined) | 10.4 |
| CCOC[C@H]1CC[C@H]2[C@H](CCN2C(=O)c2cnccn2)O1 | -4.15 |
| COC[C@H]1CC[C@H]2[C@H](CCN2C(=O)c2ccncc2F)O1 | -0.359 |
| CCOC[C@@H]1CC[C@H]2[C@H](CCN2C(=O)c2cnccn2)O1 | 2.78 |
| CCC(=O)N1CCC2(COCc3cnc(NCc4ccco4)nc32)C1 (centres undefined) | 0.523 |
| Cc1cccc(CN2C[C@@H]3CCCO[C@@H]3[C@H](Nc3ccccn3)C2)n1 | 1.63 |
| CCn1ncc2c1C(COC)CN(Cc1cnn(C)c1)C2 (centres undefined) | 8.92 |
| Cc1cc(CN2C[C@@H]3COC[C@]3(COCC(=O)N(C)C)C2)no1 | -4.13 |
| Cn1cccc1C(=O)N1CCc2ccc(=O)n(C)c2CC1 | -6.17 |
| CC(C)CNC(=O)[C@H]1CCS(=O)(=O)[C@@H]2CN(Cc3cccnc3)C[C@H]12 | -4.4 |
| Cc1ccccc1N1CC2(CCN(c3nncs3)C2)CC1=O (centres undefined) | -1.13 |
| O=C(NCCN1CCC(c2cccs2)CC1)c1ccccc1C(F)(F)F | 1.14 |
| O=C(Nc1nc2c(s1)CN(S(=O)(=O)C1CC1)CC2)c1c(F)cccc1F | 3.16 |
| Cc1cccc(CS(=O)(=O)NCC(O)Cc2ccccc2)c1 (centres undefined) | 0.192 |
| COc1ccccc1OCC(=O)NCC(O)(c1ccccc1)C1CC1 (centres undefined) | -3.14 |
| CC(=O)N1CCC(Oc2ccc(Cl)cn2)CC1 | 0.563 |
| CS(=O)(=O)N1CCC(Oc2cnccn2)CC1 | -5.72 |
| CN(C)CC1CSCCCN1C(=O)c1ccc(=O)[nH]c1 (centres undefined) | 10.8 |
| CN(C)CC1CSCCCN1C(=O)c1ccc(C(C)(C)C)cc1 (centres undefined) | -0.949 |
| COCCN(Cc1ccoc1)C(=O)c1c(F)cccc1Cl | -0.424 |

| Structure (SMILES) | cytotoxicity at 70.5 h [%] |
| --- | --- |
| Cc1nsc(C(=O)N2CCc3ccccc3C2)n1 | 28.2 |
| CC(C)(C)C(=O)NCCn1ccc(-c2ccncc2)n1 | -4.99 |
| Cn1cnnc1S(=O)(=O)C1CCN(S(=O)(=O)c2c(Cl)cccc2Cl)CC1 | -8.23 |
| CNC(=O)CS(=O)(=O)C1CCN(S(=O)(=O)C2CC2)CC1 | -3.01 |
| CNC(=O)CS(=O)(=O)C1CCN(S(=O)(=O)c2ccccc2Br)CC1 | -8.95 |
| CC(C)CNc1nc(C(=O)/N=c2\[nH]nc(C(C)(C)C)s2)cs1 | 4.48 |
| CC(C)n1[nH]c(=O)c2c1NC(=O)CC2c1cccnc1 (centres undefined) | 9.01 |
| CCOC(=O)N1CCN(C(=O)c2sc(-c3ccc(F)cc3)nc2C)CC1 | -8.29 |
| Cc1nc(-c2ccccc2F)sc1C(=O)N1CCN(C)CC1 | -10.6 |
| O=C(NCCc1ccccc1)C1CCCN(c2ccc3nncn3n2)C1 (centres undefined) | -9.33 |
| CCCNC(=O)c1sc(Nc2ccc(Cl)cn2)nc1C | -5 |
| COC(=O)Cn1cccc(S(=O)(=O)N2CCC(C)CC2)c1=O | 41 |
| CC1CCN(S(=O)(=O)c2cccn(CC(=O)N3CCOCC3)c2=O)CC1 | -16 |
| O=C(Cn1cc(C(=O)O)ccc1=O)NCc1ccc(F)c(Cl)c1 | -13.4 |
| CC(C)(C)C(=O)Cn1nc(-c2ccccc2F)ccc1=O | -21.7 |
| O=C1CC(c2ccccc2)c2c(n3ccsc3nc2=O)N1 (centres undefined) | -20 |
| COc1ccc(C2SCC(=O)Nc3ccsc32)cc1 (centres undefined) | -3.24 |
| CC(C)c1nnc2ccc(N3CCC(C(=O)Nc4nccs4)CC3)nn12 | 10.7 |
| O=C(Cn1nc2c(cc1=O)CSCC2)NC(Cc1ccccc1)C(=O)O (centres undefined) | 23 |
| O=C(O)c1cc2c(nc1O)CC(c1cccc(Cl)c1)CC2=O (centres undefined) | -2.93 |
| COc1cccc(-c2nc(C)c(C(=O)NC(CO)CCSC)s2)c1 (centres undefined) | -25 |
| O=C(c1nc(-c2ccc3cc[nH]c3c2)no1)N1CCCC1 | -5.08 |

| Structure (SMILES) | cytotoxicity at 70.5 h [%] |
| --- | --- |
| CC[C@H](C)[C@H](NC(=O)Cc1csc(-c2cccc(Cl)c2)n1)C(=O)O | -27.4 |
| CC(C)N1CCn2c(nc3cc(C(N)=O)ccc32)C1 | -16.5 |
| Cc1ccc2c(ccn2CCC(=O)N2CCC(C(N)=O)CC2)c1 | -21.3 |
| Cc1oc(-c2nc(C#N)c(N(C)C)o2)cc1S(=O)(=O)N1CCCC1 | -21.5 |
| CC1CCc2nc(O)c(C(=O)NCc3cccc(F)c3)cc2C1 (centres undefined) | -3.12 |
| O=c1c2cnc(N3CCCCC3)nc2ccn1-c1ccccc1 | 19 |
| O=c1[nH]c2c(c(=O)n1C1CCCCC1)CCC2NCCc1ccccc1 (centres undefined) | -17.4 |
| CC(C)NC(=O)c1sccc1N(C)S(=O)(=O)c1ccc(Cl)cc1 | -8.11 |
| Cc1cc2nc(SCC(=O)N3CCOCC3)n(CC(C)C)c(=O)c2[nH]1 | -7.46 |
| O=c1[nH]c2nc(N3CCSCC3)ncc2c(=O)n1-c1cccc(F)c1 | -0.348 |
| CN1CCN(c2ncc3c(=O)n(-c4cccc(F)c4)c(=O)[nH]c3n2)CC1 | -12.6 |
| Cc1noc(C2CCCCN2C(=O)NC2CCCC2)n1 (centres undefined) | -7.87 |
| O=C(O)c1nnn(-c2ccc(OC(F)(F)F)cc2)c1-c1ccncc1 | -10.5 |
| NC(=O)c1ccc2c(c1)nc1n2CCN(Cc2ccco2)C1 | -8.52 |
| COc1cccc2c1ccn2CCC(=O)N1CCCC(C(=O)O)C1 (centres undefined) | 18.7 |
| CC(C)N1CCc2c(C#N)c(NCc3ccco3)n3cnnc3c2C1 | -10.3 |
| CC(C)CNC(=O)c1c(-n2cnnn2)sc2c1CCC2 | -13.7 |
| CN(C(=O)Cn1nc(-c2cccs2)ccc1=O)C1CCS(=O)(=O)C1 (centres undefined) | 11.2 |
| Cn1ncc2c1NC(=O)CC2c1ccc(Cl)cc1Cl (centres undefined) | -15 |
| Cc1c[nH]nc1C1CN(c2ncccn2)CCO1 (centres undefined) | -3.49 |
| c1cc(C2CN(C3CCCCC3)C2)n[nH]1 | 17.8 |
| Cc1cc(C(F)(F)F)nc(C2CCN(C(=O)CO)CC2)n1 | -6.47 |

| Structure (SMILES) | cytotoxicity at 70.5 h [%] |
| --- | --- |
| Cc1nn(C)cc1-c1cc(C(=O)NCC(C)(C)c2ccc(F)cc2)n[nH]1 | 4.21 |
| Cc1nn(C)cc1-c1cc(C(=O)NCC(C)(C)c2ccccc2F)n[nH]1 | 17.9 |
| Cc1nn(C)cc1-c1cc(C(=O)NCC(C)(C)c2cccc(F)c2)n[nH]1 | 1.66 |
| Cc1cc(N(C)C)nc(C2(C)CCCN2CC(N)=O)n1 (centres undefined) | -2.11 |
| CC1(c2[nH]ncc2C(N)=O)CCN(S(=O)(=O)c2ccccc2)CC1 | -2.57 |
| Cc1cc(O)nc(C2CCN(C(=O)CO)CC2)n1 | -3.54 |
| CN(CC1(C)COC1)C(=O)c1cc(-c2ccn(C)n2)nc2ccccc12 | 14.1 |
| CC(C)(C)c1cc(C(=O)N2CCC(c3cnccn3)CC2)[nH]n1 | -5.82 |
| CCCn1cc(Cl)c(C(=O)N2C[C@@H](O)[C@H](Oc3ccccc3)C2)n1 | 1.62 |
| CN(Cc1ccc(F)cc1)[C@@H]1CN(S(C)(=O)=O)C[C@H]1O | -4.5 |
| CNc1cncc(C2CCCN2C(=O)CCn2ccnc2)n1 (centres undefined) | -6.98 |
| CO[C@@H]1CCC[C@@H](N(C)C(=O)c2cn3cc(C)ccc3n2)[C@H]1O | -8.11 |
| C[C@@H]1CN(Cc2ccco2)CCN1C(=O)Cc1ccccc1F | -10.6 |
| CCSCc1nc(O)c2nnn(C3CCN(Cc4ccco4)CC3)c2n1 | 9.06 |
| CCSCc1nc(O)c2nnn(C3CCN(Cc4ccoc4)CC3)c2n1 | -14.9 |
| CS(=O)(=O)N1CCCC(n2nnn(-c3ccccc3)c2=O)C1 (centres undefined) | -8.01 |
| CCS(=O)(=O)N1CCCC(n2nnn(-c3ccccc3)c2=O)C1 (centres undefined) | -4.32 |
| CC1(C(=O)N2CCSCC2)CNCCO1 (centres undefined) | 11.8 |
| CNC(=O)CCc1cc(C)nc(C2CCN(c3ccccc3)CC2)c1 | -3.63 |
| CNC(=O)CCc1cc(C2CCN(c3cnccn3)CC2)nc(C)n1 | -8.81 |
| CCCC(=O)NCCc1nc(N(C)C)ncc1-c1ccncc1 | -7.54 |
| c1cc(OCc2ccc3c(c2)OCCO3)ccc1CNC1CC1 | 22.8 |

| Structure (SMILES) | cytotoxicity at 70.5 h [%] |
| --- | --- |
| CCN(CC)C1CCN(C(=O)c2cc3cc(C)cc(C)c3nc2C)CC1 | -2.42 |
| Cc1oncc1C(=O)N1CCc2ncnc(-c3cnn(C)c3)c2CC1 | -1.31 |
| CNC(=O)c1ccc2c(c1)C1(CCN(C(C)C)CC1)C(=O)N2 | 2.6 |
| CN(C)C(=O)COC[C@]12COC[C@H]1CN(Cc1ccccc1)C2 | -2.22 |
| Cc1nc(CN2C[C@@H]3COC[C@]3(COCC(=O)N(C)C)C2)cs1 | -5.31 |
| CN(C)CCn1c2c(ccc1=O)CCN(C(=O)c1ccoc1)CC2 | -1.95 |
| Cc1ccoc1C(=O)N1CCc2ccc(=O)n(CCN(C)C)c2CC1 | -3.74 |
| CNC(=O)CN1CC[C@H]2CN(C(=O)c3cccc(C)c3)C[C@H]2C1 | -2.46 |
| COCCNC(=O)[C@H]1C[C@@H]2CCN(c3ncccn3)C[C@H]2O1 | -1.44 |
| CC(C)CNC(=O)[C@H]1CCS(=O)(=O)[C@@H]2CN(CC(C)C)C[C@H]12 | -1.81 |
| CN(C)CCOCC1CN(Cc2ccc(F)cc2)Cc2nnn(C)c21 (centres undefined) | 2.45 |
| O=C(NCCc1ccccn1)[C@@H]1CC[C@@H]2[C@@H](CCN2Cc2ccoc2)O1 | 0.0992 |
| CCn1ncc2c1C(COC)CN(Cc1ccc(F)cc1)C2 (centres undefined) | 2.06 |
| Cc1cccc(CN2C[C@@H]3COC[C@]3(COCC(=O)N(C)C)C2)n1 | -3.44 |
| Cc1ncsc1CN1C[C@@H]2CCCO[C@@H]2[C@H](Nc2ccccn2)C1 | -4.96 |
| Cc1cccc(CN2CC3(CCN(Cc4ccco4)CC3)OCC2=O)n1 | -3.31 |
| c1cncc(C2COC3(CCN(Cc4cccs4)CC3)C2)c1 (centres undefined) | -6.54 |
| COc1ccc(CN2CCC3(CC2)CC(c2cccnc2)CO3)cc1 (centres undefined) | -6.67 |
| COCCn1cc2c(n1)C(CNCc1nccs1)OCC2 (centres undefined) | -2.52 |
| Cc1cccc(CN2CC3(CCN(C4CCOC4)CC3)OCC2=O)n1 (centres undefined) | 0.761 |
| COCCO[C@H]1CCN(Cc2cccnc2)[C@H]1Cc1cccnc1 | 17.5 |
